Structures can show the parent of a compound that is named as a salt.
Assay: Antiproliferative activity against thrombin-induced […] smooth muscle cells isolated from Sprague-Dawley rat aorta after 2 days by MTT assay
Type: functional
Conditions: VSMC, 48 h
With `CCOc1cc2c(c(F)c1OCC)C(=N)N(CC(=O)c1cc(N3CCOCC3)c(OC)c(C(C)(C)C)c1)C2` [ATOPAXAR HYDROBROMIDE] the IC50 was 32 nM. `CCOc1cc2c(c(F)c1OCC)C(=N)N(CC(=O)c1cc(N3CCC(O)CC3)c(OC)c(C(C)(C)C)c1)C2` showed an IC50 of 23 nM. In the case of `CCOc1cc2c(c(F)c1OCC)C(=N)N(CC(=O)c1cc(N3CCNCC3)c(OC)c(C(C)(C)C)c1)C2`, the IC50 is reported as 52 nM. `CCOc1cc2c(c(F)c1OCC)C(=N)N(CC(=O)c1cc(N3CCN(CC(=O)O)CC3)c(OC)c(C(C)(C)C)c1)C2` gave an IC50 of 150 nM. For `CCOc1cc2c(c(F)c1OCC)C(=N)N(CC(=O)c1cc(N3CCN(CC#N)CC3)c(OC)c(C(C)(C)C)c1)C2`, the IC50 was 75 nM.

Source: ChEMBL document CHEMBL3880385, “2-Iminoisoindolinone derivatives as thrombin receptor antagonists” (2011)
